Experimental data from article PMC9229294, “Pyridazinones and Structurally Related Derivatives with Anti-Inflammatory Activity” (Molecules, 2022).
Like-named read-outs stand apart in the source and are kept apart here.

What was measured:
[1] = system: LPS-induced IL-6 production in MonoMac-6 cells; assay: Inhibition of LPS-induced IL-6 production in MonoMac-6 cells (ELISA); format: cell-based, human; conditions: for IC50: Homo sapiens, MONO-MAC-6, read-out: Inhibition of IL-6 Production IC50 in MonoMac-6 Cells
Method: (§1) Our studies included 175 compounds that were previously synthesized and characterized at NEUROFARBA, Pharmaceutical and Nutraceutical Section, University of Florence, Italy. We previously evaluated the FPR1/FPR2 agonist activity of these compounds by evaluating their ability to induce Ca^2+ mobilization in FPR-transfected HL60 cells and human neutrophils. […] All test compounds were dissolved in DMSO at stock concentrations of 10 mM and stored at −20 °C. For primary screening assays (analysis of NF-κB activation, IL-6 production, and cytotoxicity), the following final concentrations of the compounds were used: 3.125, 6.25, 12.5, 25, and 50 µM; the final concentration of DMSO was 1% in all samples.
A human IL-6 ELISA kit (BD Biosciences, San Jose, CA, USA) was used to measure IL-6 production. […] The cells were pretreated with the test compound or DMSO for 30 min, followed by addition of 250 ng/mL LPS for 24 h. The IC50 values for IL-6 production were calculated by plotting the percentage inhibition against the logarithm of the inhibitor concentration (at least five points).

[2] = Cytotoxicity, CellTiter-Glo, THP1-Blue cells; format: cell-based, human; conditions: human, THP1-Blue cells
In short: (§2)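 THP1-Blue or MonoMac-6 cells were exposed for 24 h to compounds at 3.125–50 µM final (1% DMSO). Viability was read as ATP-dependent luminescence (CellTiter-Glo). IC50 came from % inhibition plotted against log concentration (at least five points).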

[3] = Cytotoxicity, CellTiter-Glo, MonoMac-6 cells; format: cell-based, human; conditions: human, MonoMac-6 cells
Method: as §1
(§3) The cytotoxicity was analyzed with a CellTiter-Glo Luminescent Cell Viability Assay Kit from Promega (Madison, WI, USA), according to the manufacturer’s protocol. The luminescent ATP assays are based on a luciferase enzymatic reaction which uses ATP from viable cells to generate photons. For this assay, the cells were incubated with the compounds under investigation for 24 h. After treatment, the cells were equilibrated to room temperature for 30 min, luciferase + luciferin substrate was added, and the samples were analyzed with a Fluoroscan Ascent FL (Thermo Fisher Scientific, Waltham, MA, USA). The IC50 values were calculated by plotting the percentage inhibition against the logarithm of the inhibitor concentration (at least five points).

MonoMac-6 cells = assay: Cytotoxicity, CellTiter-Glo, MonoMac-6 cells; format: cell-based, human; conditions: 24 h
Method: as §1, §3

[4] = system: LPS-induced NF-κB activity in THP1-Blue cells; assay: Inhibition of LPS-induced NF-κB transcriptional activity, alkaline phosphatase reporter, THP1-Blue cells; format: cell-based, human; conditions: for IC50: LPS-induced NF-κB activity, human THP1-Blue cells, N.A. = no activity at 50 µM; for Observed class for inhibition of NF-κB activity: experimentally observed, Active or N.A.; for Inhibition of LPS-induced NF-κB activity (in words): THP1-Blue cells, 250 ng/mL LPS, 24 h; for Effect of blocking FPR1 (Boc-MLF) on inhibitor activity on LPS-induced NF-κB activation: 25 μM Boc-MLF 15 min, then 5 µM compound, LPS-treated THP1 cells
In short: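 THP1-Blue cells (NF-κB-inducible secreted alkaline phosphatase reporter) pretreated 30 min with compound at final 3.125–50 µM (1% DMSO), then stimulated with 250 ng/mL LPS for 24 h. Supernatant alkaline phosphatase read at 655 nm with QUANTI-Blue, relative to LPS-only controls.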

FPR1 [5] = target: T1, FPR1 (Homo sapiens, UniProt P21462); assay: Ca2+ mobilization in FPR1-transfected HL-60 cells (agonist activity); format: cell-based; conditions: reported here for the first time (Suppl.)
T1 construct: expressed in transfected cells; host or cells: HL-60 cells (FPR1-HL60)
T1 sequence (P21462 1-350): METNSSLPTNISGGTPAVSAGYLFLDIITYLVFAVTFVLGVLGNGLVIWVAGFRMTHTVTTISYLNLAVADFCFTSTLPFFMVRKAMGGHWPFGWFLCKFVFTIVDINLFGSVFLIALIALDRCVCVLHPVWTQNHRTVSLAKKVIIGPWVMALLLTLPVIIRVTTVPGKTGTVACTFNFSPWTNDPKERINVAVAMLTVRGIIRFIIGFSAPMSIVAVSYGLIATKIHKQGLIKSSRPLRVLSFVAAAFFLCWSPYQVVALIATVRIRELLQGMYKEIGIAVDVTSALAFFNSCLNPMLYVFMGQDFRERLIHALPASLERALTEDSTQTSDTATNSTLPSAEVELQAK
Method: (§4) Changes in the intracellular Ca^2+ [Ca^2+]i were measured with a FlexStation II scanning fluorometer (Molecular Devices). The cells, which were suspended in Hank’s balanced salt solution without Ca^2+ and Mg^2+ but with 10 mM HEPES (HBSS^−), were loaded with 1.25 μg/mL Fluo-4 AM dye and incubated for 30 min in the dark at 37 °C. After the dye loading, the cells were washed with HBSS^− containing 10 mM HEPES, resuspended in HBSS^+ containing Ca^2+, Mg^2+, and 10 mM HEPES (HBSS^+), and aliquoted into the wells of black microtiter plates (2 × 10^5 cells/well). […] The maximum change in the fluorescence during the first 3 min, expressed in arbitrary units over the baseline, was used to determine a response. […] A curve fitting (5–6 points) and a calculation of median effective inhibitory concentrations (IC50) were performed by nonlinear regression analysis of the dose–response curves generated using Prism 8 (GraphPad Software, Inc., San Diego, CA, USA).

FPR2 [6] = target: T2, FPR2 (Homo sapiens, UniProt P25090); assay: Ca2+ mobilization in FPR2-transfected HL-60 cells (agonist activity); format: cell-based; conditions: reported here for the first time (Suppl.)
T2 construct: expressed in transfected cells; host or cells: HL-60 cells (FPR2-HL60)
T2 sequence (P25090 1-351): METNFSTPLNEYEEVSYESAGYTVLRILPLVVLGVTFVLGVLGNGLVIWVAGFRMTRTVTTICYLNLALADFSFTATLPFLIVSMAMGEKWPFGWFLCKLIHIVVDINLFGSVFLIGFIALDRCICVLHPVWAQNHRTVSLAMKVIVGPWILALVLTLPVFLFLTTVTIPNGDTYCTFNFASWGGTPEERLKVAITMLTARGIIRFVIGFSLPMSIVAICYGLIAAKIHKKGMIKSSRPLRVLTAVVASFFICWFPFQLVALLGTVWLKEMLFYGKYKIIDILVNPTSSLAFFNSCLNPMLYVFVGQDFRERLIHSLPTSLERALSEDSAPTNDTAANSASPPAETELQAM
Method: as §4

[7] = system: rats with CFA-induced inflammatory arthritis; set-up: method as in PMID 32388428; conditions: cited from earlier work
FPR2 [8] = target: T2, FPR2; conditions: FPR2-transfected HL-60 cells, read-out: Ca2+ Mobilization FPR2 EC50 in HL-60 Cells, cited from earlier work
FPR1 [9] = target: T1, FPR1; conditions: FPR1-transfected HL-60 cells, read-out: Ca2+ Mobilization FPR1 EC50 in HL-60 Cells, cited from earlier work
mouse aortas = system: mouse aortas; set-up: method as in PMID 19639995, PMID 32085666, PMID 28169296; conditions: cited from earlier work
[10] = system: myocardial infarction injury in mice; set-up: method as in PMID 19639995, PMID 32085666, PMID 28169296; conditions: cited from earlier work
THP1-Blue cells = assay: Cytotoxicity, CellTiter-Glo, THP1-Blue cells; format: cell-based, human; conditions: for Cytotoxicity in THP1-Blue Cells (FPR peptide agonists): peptides tested at 5 nM, N.T. = no cytotoxicity
In short: as §2

[11] = N.T. = no cytotoxicity at 50 µM, read-out: Cytotoxicity IC50 in THP1-Blue Cells
[12] = Table 3, as reported previously (see Table 1)

Cc1cc(Cc2ccsc2)c(=O)n(CC(=O)Nc2ccc(Br)cc2)n1 [Compound 9]
IC50 [1]: 27.5 ± 1.6 µM | IC50 at 24 h [2, 11]: > 50 µM | IC50 at 24 h [3]: 19 ± 3.6 µM | Cytotoxicity in MonoMac-6 cells (in words) (MonoMac-6 cells): exhibiting cytotoxicity | IC50 ([4]; Homo sapiens): 18 ± 0.7 µM | Observed class for inhibition of NF-κB activity [4]: Active

Cc1cc(Cc2ccc(C(=O)Nc3ccc(Br)cc3)cc2)c(=O)n(CC(=O)Nc2ccc(Br)cc2)n1 [Compound 61]
EC50 (FPR1 [5]): > 50 µM | EC50 (FPR2 [6]): > 50 µM

COc1cccc(Cc2c(C)c(C)nn(CC(=O)Nc3ccc(Br)cc3)c2=O)c1 [Compound 69]
IC50 at 24 h [2, 11]: > 50 µM | IC50 ([4]; Homo sapiens): 34.5 ± 2.6 µM | Inhibition of LPS-induced NF-κB activity (in words) [4]: inhibited | Observed class for inhibition of NF-κB activity [4]: Active | Pain hypersensitivity [7]: reduce pain hypersensitivity

COc1cccc(Cc2c(-c3ccccc3)c(C)nn(CC(=O)Nc3ccc(Br)cc3)c2=O)c1 [Compound 71, N-(4-bromophenyl)-2-[5-(3-methoxybenzyl)-3-methyl-6-oxo-4-phenylpyridazin-1(6H)-yl]-acetamide]
EC50 (FPR2 [8]; agonist activity from Table 1): > 50 µM | EC50 (FPR2 [8]; [12]): > 50 µM | IC50 [1]: 2 ± 0.3 µM | Inhibition of LPS-induced IL-6 production (in words) ([1]; MonoMac-6 cells, 250 ng/mL LPS, 24 h): inhibited | IC50 at 24 h [2, 11]: > 50 µM | EC50 (FPR1 [9]; [12]): 2.2 µM | IC50 at 24 h [3]: > 50 µM | Effect of blocking FPR1 (Boc-MLF) on inhibitor activity on LPS-induced NF-κB activation [4]: no effect | IC50 ([4]; Homo sapiens): 0.5 ± 0.1 µM | Inhibition of LPS-induced NF-κB activity (in words) [4]: inhibited | Observed class for inhibition of NF-κB activity [4]: Active | Pain hypersensitivity [7]: reduce pain hypersensitivity

COc1cccc(Nc2c(C(C)=O)c(C)nn(CC(=O)Nc3ccc(Br)cc3)c2=O)c1 [Compound 73]
Inhibition of LPS-induced NF-κB activity (in words) [4]: inactive | Pain hypersensitivity [7]: reduce pain hypersensitivity

COc1cccc(Cc2cc(C)nn(C(C)C(=O)Nc3ccc(Br)cc3)c2=O)c1 (centres unmarked) [Compound 84, N-(4-bromophenyl)-2-[5-(3-methoxybenzyl)-3-methyl-6-oxopyridazin-1(6H)-yl]-propanamide]
IC50 [1]: 30.7 ± 1.8 µM | IC50 at 24 h [2, 11]: > 50 µM | IC50 at 24 h [3]: > 50 µM | Effect of blocking FPR1 (Boc-MLF) on inhibitor activity on LPS-induced NF-κB activation [4]: no effect | IC50 ([4]; Homo sapiens): 0.6 ± 0.1 µM | Endothelium-independent relaxation (mouse aortas): induce endothelium-independent relaxation | Cardioprotection in myocardial infarction injury [10]: cardioprotection effect

CC1CC(c2ccccc2)=NN(CC(=O)Nc2ccc(Br)cc2)C1=O (centres unmarked) [Compound 125]
EC50 (FPR2 [8]; agonist activity from Table 1): 10 µM | EC50 (FPR2 [8]; [12]): 10 µM | IC50 [1]: 7.2 ± 0.03 µM | IC50 (THP1-Blue cells; THP1-Blue cells, N.T. = no cytotoxicity at 50 µM): > 50 µM | EC50 (FPR1 [9]; agonist activity from Table 1): 24.4 µM | EC50 (FPR1 [9]; [12]): 24.4 µM | IC50 at 24 h [3]: > 50 µM | IC50 [4]: 22.4 ± 0.7 µM

Nc1cc(-c2ccncc2)cn(CC(=O)Nc2ccc(Br)cc2)c1=O [Compound 139]
EC50 (FPR1 [5]): > 50 µM | EC50 (FPR2 [6]): > 50 µM

COc1cccc(Nc2c(C)c(-c3ccccc3)nn2CC(=O)Nc2ccc(Br)cc2)c1 [Compound 158]
EC50 (FPR2 [8]; agonist activity from Table 1): > 50 µM | IC50 at 24 h ([2]; 24 h, read-out: Cytotoxicity IC50): 22 to 26 µM | IC50 at 24 h [2, 11]: 22.4 ± 5.2 µM | Cytotoxicity in THP1-Blue cells (in words) (THP1-Blue cells; 24 h): cytotoxic | EC50 (FPR1 [9]; agonist activity from Table 1): > 50 µM | IC50 ([4]; Homo sapiens): 8.8 ± 1.1 µM | Observed class for inhibition of NF-κB activity [4]: Active

CSCC[C@H](NC(=O)[C@@H](NC(=O)[C@H](CCSC)NC(=O)[C@H](Cc1ccc(O)cc1)NC(=O)[C@H](CCCCN)NC(=O)[C@@H](N)Cc1c[nH]c2ccccc12)C(C)C)C(=O)O [WKYMVM, Trp-Lys-Tyr-Met-Val-Met, reference compound]
Cytotoxicity in THP1-Blue Cells (FPR peptide agonists) (THP1-Blue cells; THP1-Blue cells): N.T. (No cytotoxicity was observed at the highest concentration tested (50 µM))

CSCC[C@H](NC=O)C(=O)N[C@@H](CC(C)C)C(=O)N[C@@H](Cc1ccccc1)C(=O)O [f MLF]
Cytotoxicity in THP1-Blue Cells (FPR peptide agonists) (THP1-Blue cells; THP1-Blue cells): N.T. (No cytotoxicity was observed at the highest concentration tested (50 µM))
